The text below walks through data of article PMC3049928 (Archives of biochemistry and biophysics, 2010).

The experiment addresses SULT1A1 (human phenol sulfotransferase, human sulfotransferase 1A1) (Homo sapiens, UniProt P50225). As to the kind of experiment: pNPS assay of PAP sulfation, p-nitrophenol absorbance at […] nm. The format is biochemical.

SULT1A1 (human phenol sulfotransferase, human sulfotransferase 1A1), sequence (P50225 whole entry): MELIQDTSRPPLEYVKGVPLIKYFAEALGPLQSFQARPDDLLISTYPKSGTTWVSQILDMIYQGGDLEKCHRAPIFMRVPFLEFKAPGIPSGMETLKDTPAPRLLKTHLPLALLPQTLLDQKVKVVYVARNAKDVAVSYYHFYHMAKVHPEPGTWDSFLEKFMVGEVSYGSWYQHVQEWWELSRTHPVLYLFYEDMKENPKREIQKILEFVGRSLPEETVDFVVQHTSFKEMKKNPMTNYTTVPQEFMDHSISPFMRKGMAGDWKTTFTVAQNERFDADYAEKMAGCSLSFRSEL

One may read the Ki as a dissociation constant, usually derived from enzyme kinetics or from competition with a known ligand. The molecule `Oc1ccc2ccccc2c1` [2-naphthol] yielded an inhibitory constant (Ki) of 2.6 ± 0.2 µM.
